# “And” between values parts separate entries of the source, which are not always exact repeats. Equal values may be shown once. Read-outs that look alike come from different tables or passages of the source.
# Columns and labels:
# A. pisum RDL1ad = conditions: read-out: IC50 for fipronil; cited from earlier work
# Vd-RDL1 GABAr = molecular target: T1, Vd-RDL1 GABAr (Varroa destructor, UniProt A0A343W7T5); test: Two-electrode voltage-clamp of GABA-induced currents, Vd-RDL1 expressed in Xenopus laevis oocytes; type: cell-based
# T1 sequence (A0A343W7T5 35-585): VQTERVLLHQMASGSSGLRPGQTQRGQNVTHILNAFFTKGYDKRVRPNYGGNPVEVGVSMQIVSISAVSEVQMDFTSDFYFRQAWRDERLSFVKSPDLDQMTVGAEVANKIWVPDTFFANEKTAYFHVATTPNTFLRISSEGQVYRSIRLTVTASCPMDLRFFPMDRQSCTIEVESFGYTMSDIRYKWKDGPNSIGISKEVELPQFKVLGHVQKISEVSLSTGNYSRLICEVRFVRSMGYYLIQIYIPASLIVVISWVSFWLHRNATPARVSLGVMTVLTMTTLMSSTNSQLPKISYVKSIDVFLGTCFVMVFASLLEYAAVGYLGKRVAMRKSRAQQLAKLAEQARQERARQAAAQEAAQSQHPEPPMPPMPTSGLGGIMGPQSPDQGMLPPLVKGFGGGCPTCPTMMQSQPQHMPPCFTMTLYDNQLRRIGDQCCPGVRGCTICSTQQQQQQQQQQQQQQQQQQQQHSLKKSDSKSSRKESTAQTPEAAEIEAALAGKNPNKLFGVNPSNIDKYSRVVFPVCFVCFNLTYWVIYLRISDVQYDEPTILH
# Method: (§1) cRNAs were in vitro synthesized from linearized plasmids using the M-message M-machine transcription kit (Thermo Fisher, Waltham, MA USA) following the manufacturer’s instructions. The cRNA concentration was adjusted to 1 µg/µL. Preparation and injection of X. laevis oocytes were completed as previously described. The oocytes were injected with 30 nL of a solution containing the cRNA of interest. Injected oocytes were maintained at 19 °C in a survival solution containing (in mM): NaCl, 96; KCl, 2; CaCl2, 1.8; MgCl2, 1; Hepes, 5; Na-pyruvate, 2.5; and gentamycin, 0.025, pH = 7.2 with NaOH, renewed daily.
# (§2) Expressed currents were recorded at room temperature using the two-electrode voltage-clamp method 1–3 days after injection. Electrodes were pulled from borosilicate glass (Warner, ref GC150T10) and filled with 3 M KCl. […] Drugs were applied using a gravity-driven perfusion system at a speed of 2 mL/min.
# (§3) Oocytes were perfused with the following ND solution (in mM): NaCl, 96; KCl, 3; CaCl2, 0.5; MgCl2, 1; HEPES, 5, with pH set at 7.4 with NaOH at ~1 mL/min. The reversal potential of the Ap-RDL receptor was measured in solutions containing (in mM): NaCl, Na-acetate or TEACl (tetraethylammonium chloride), 100; HEPES, 5 with pH set at 7.4, with NaOH or TEAOH. […] Fipronil or picrotoxin were dissolved at the final concentrations from stock solutions in DMSO (dimethylsulfoxide) at 200 and 10 mM, respectively. The final DMSO concentration was always less than 0.2%.
# (§4) With Rel.Cur. the current amplitude at each concentration relative to the current recorded in the absence of antagonist; IC50, the concentration for half-maximum inhibition, log ([Inhib]) the logarithm of the inhibitor concentration, and p a slope factor.
# (§5) With t, the time of the recording; Rel.Cur., the current amplitude at each concentration relative to the current recorded in the absence of antagonist; Amp, the amplitude of the exponential, Tau Block, the time constant of the exponential, and R the residual non-inhibited current at the steady-state of the effects. The relative block (Rel.B) is estimated as 1-R expressed in %.
# A. pisum RDL2b = conditions: text prints the receptor as Ap-RDL2; read-out: IC50 for fipronil; cited from earlier work
# Ap-RDL1 GABAr = molecular target: T2, Ap-RDL1 GABAr (Acyrthosiphon pisum, UniProt A0A385J708, C18R); test: Two-electrode voltage-clamp of GABA-induced currents, Ap-RDL1 expressed in Xenopus laevis oocytes; type: cell-based
# T2 sequence (A0A385J708 33-567 C18R): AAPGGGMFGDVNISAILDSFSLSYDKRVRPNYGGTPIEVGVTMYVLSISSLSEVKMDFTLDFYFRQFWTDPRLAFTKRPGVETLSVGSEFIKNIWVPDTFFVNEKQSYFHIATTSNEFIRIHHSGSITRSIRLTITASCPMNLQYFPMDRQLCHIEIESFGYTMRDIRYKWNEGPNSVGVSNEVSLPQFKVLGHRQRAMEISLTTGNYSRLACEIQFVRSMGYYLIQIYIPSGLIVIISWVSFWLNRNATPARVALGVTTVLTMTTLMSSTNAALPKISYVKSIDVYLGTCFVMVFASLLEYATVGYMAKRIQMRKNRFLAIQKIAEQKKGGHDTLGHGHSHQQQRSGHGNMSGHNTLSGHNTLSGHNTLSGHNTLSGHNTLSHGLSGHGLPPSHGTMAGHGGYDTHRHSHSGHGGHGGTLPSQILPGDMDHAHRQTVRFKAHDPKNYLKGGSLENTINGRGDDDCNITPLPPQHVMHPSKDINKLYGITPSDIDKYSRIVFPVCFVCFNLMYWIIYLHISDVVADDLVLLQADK
# Method: as §1, §2, §3, §4, §5
# Am-RDL GABAr = molecular target: T3, Am-RDL GABAr (Apis mellifera, UniProt A0A8U0Y4W2); test: Two-electrode voltage-clamp of GABA-induced currents, Am-RDL expressed in Xenopus laevis oocytes; type: cell-based
# T3 sequence (A0A8U0Y4W2 19-476): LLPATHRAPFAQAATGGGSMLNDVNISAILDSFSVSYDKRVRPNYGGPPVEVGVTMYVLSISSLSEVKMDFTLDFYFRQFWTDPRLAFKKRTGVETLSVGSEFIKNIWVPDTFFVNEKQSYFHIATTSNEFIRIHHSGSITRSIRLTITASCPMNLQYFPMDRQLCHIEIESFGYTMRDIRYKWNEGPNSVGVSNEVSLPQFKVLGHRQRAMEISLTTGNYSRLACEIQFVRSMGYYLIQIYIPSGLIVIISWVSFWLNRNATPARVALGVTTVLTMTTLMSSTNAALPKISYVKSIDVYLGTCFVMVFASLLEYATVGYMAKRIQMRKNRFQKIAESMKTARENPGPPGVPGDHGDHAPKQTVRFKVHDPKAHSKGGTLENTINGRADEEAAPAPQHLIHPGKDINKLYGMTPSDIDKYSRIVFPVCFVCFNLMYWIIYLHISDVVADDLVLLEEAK
# Method: as §1, §2, §3, §4, §5
# A. pisum RDL1bd = conditions: text prints the receptor as Ap-RDL1; read-out: IC50 for fipronil; cited from earlier work
# Vd-RDL2 GABAr = molecular target: T4, Vd-RDL2 GABAr (Varroa destructor, UniProt A0A3G3MDS2); test: Two-electrode voltage-clamp of GABA-induced currents, Vd-RDL2 expressed in Xenopus laevis oocytes; type: cell-based
# T4 sequence (A0A3G3MDS2 20-661): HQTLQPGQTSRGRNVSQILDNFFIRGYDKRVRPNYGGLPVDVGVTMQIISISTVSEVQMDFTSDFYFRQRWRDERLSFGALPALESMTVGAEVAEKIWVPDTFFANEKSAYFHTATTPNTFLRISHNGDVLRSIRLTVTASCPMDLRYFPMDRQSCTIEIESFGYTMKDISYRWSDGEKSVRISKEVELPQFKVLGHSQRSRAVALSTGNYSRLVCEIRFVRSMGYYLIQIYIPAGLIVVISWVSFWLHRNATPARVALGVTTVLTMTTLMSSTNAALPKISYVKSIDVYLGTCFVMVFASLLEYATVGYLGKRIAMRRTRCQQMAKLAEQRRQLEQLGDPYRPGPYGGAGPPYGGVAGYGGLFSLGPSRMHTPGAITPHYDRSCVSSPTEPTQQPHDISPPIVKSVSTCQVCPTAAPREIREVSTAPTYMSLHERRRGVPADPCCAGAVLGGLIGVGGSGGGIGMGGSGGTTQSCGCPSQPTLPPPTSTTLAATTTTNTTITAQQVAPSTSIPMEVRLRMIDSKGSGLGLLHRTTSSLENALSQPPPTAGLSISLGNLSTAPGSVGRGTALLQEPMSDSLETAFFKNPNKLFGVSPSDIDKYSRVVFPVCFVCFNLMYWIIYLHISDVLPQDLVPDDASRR
# Method: as §1, §2, §3, §4, §5
# Vd-RDL3 GABAr = molecular target: T5, Vd-RDL3 GABAr (Varroa destructor, UniProt A0A343W7T7); test: Two-electrode voltage-clamp of GABA-induced currents, Vd-RDL3 expressed in Xenopus laevis oocytes; type: cell-based
# T5 sequence (A0A343W7T7 31-591): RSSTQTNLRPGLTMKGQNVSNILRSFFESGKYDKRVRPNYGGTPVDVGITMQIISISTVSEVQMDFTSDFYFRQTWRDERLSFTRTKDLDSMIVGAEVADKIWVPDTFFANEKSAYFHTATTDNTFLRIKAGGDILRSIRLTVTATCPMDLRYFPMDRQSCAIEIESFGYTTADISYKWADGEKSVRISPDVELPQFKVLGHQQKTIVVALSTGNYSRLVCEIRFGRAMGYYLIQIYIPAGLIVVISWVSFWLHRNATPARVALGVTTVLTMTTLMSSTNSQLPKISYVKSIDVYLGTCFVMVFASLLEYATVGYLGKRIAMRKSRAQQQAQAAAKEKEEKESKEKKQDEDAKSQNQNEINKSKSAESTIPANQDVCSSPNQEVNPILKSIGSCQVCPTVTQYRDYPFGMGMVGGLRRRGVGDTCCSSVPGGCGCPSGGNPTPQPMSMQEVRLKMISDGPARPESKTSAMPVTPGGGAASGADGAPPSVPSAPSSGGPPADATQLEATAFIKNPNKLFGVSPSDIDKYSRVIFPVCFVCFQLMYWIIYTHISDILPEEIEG
# Method: as §1, §2, §3, §4, §5
# Hs-α1β2γ2 = conditions: read-out: IC50 for fipronil; cited from earlier work
# [1] = molecular target: T6, Hs-α2β2γ2 GABA-A receptor (Homo sapiens, UniProt P18507+P47869+P47870); test: cell-based; type: cell-based
# T6 construct: expressed in transfected cells; host or cells: Xenopus laevis oocytes (cRNA injection)
# Method: as §1, §2, §3, §4, §5
# [2] = molecular target: T7, Hs-α4β2γ2 GABA-A receptor (Homo sapiens, UniProt P18507+P47870+P48169); test: Two-electrode voltage-clamp of GABA-induced currents, Hs-α4β2γ2 expressed in Xenopus laevis oocytes; type: cell-based
# T7 construct: expressed in transfected cells; host or cells: Xenopus laevis oocytes (cRNA injection; α4 in pcDNA3.1(+))
# Method: as §1, §2, §3, §4
# as §5, with “The relative block (Rel.B) is estimated as 1-R expressed in %.” left out
# [3] = IC50 (inhibition of the GABA response), GABA 100 µM, inhibitor co-applied
# [4] = dieldrin 1 µM, GABA 100 µM, mono-exponential fit
# [5] = peak current, oocytes clamped at −60 mV
# T6 sequence (P47869 29-451): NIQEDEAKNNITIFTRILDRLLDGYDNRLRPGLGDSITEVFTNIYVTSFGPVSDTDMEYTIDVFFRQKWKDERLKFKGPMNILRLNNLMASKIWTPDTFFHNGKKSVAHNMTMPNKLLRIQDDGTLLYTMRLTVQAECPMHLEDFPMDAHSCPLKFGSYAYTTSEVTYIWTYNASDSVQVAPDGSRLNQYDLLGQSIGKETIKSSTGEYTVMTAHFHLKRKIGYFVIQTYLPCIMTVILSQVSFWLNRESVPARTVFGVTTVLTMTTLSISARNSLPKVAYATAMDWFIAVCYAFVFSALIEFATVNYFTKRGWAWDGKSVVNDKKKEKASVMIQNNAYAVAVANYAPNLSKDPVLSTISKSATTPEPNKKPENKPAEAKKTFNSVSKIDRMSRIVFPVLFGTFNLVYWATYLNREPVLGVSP
# T6 sequence (P47870 25-512 limits assumed): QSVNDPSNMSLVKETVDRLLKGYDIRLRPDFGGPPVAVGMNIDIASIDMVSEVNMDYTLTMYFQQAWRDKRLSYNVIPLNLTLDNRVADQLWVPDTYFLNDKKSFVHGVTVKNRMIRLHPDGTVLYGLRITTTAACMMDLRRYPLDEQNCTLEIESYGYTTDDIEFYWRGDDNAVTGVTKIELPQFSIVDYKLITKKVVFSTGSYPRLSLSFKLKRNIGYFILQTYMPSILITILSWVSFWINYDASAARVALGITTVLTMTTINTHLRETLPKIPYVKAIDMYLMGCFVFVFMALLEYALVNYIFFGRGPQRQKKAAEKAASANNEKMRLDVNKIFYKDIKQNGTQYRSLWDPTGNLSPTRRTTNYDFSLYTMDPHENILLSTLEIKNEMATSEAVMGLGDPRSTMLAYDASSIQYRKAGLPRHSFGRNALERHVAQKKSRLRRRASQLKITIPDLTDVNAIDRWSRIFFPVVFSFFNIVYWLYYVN
# T6 sequence (P18507 40-475): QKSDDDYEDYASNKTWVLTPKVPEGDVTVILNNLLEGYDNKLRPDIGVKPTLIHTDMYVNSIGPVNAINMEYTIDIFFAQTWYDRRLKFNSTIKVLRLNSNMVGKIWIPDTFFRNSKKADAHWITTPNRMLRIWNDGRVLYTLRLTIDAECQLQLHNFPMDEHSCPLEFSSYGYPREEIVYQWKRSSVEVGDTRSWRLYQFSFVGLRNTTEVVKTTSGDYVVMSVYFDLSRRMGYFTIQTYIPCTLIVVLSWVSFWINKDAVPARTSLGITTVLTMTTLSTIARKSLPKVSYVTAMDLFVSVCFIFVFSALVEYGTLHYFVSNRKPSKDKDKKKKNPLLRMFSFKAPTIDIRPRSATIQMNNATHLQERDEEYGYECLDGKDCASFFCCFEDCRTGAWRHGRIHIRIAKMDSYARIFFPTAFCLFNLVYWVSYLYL
# T7 sequence (P48169 36-554): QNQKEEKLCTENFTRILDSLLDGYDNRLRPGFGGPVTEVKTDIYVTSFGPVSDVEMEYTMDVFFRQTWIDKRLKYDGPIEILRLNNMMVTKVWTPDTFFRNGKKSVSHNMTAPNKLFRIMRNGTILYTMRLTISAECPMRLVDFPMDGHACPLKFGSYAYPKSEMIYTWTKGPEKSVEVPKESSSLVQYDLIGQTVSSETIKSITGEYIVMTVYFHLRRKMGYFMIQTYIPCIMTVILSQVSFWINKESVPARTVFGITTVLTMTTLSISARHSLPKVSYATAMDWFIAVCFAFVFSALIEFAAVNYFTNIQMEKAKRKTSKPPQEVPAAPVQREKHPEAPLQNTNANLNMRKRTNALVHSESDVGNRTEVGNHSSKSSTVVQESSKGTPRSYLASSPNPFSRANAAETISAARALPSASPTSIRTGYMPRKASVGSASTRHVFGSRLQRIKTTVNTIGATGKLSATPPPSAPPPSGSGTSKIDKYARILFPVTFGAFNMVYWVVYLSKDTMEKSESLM
# T7 sequence (P47870 25-512 limits assumed): as the sequence (P47870 25-512 limits assumed) above
# T7 sequence (P18507 40-475): as the sequence (P18507 40-475) above
molecule,measurement,setting,value
N#Cc1nn(-c2c(Cl)cc(C(F)(F)F)cc2Cl)c(N)c1[S+]([O-])C(F)(F)F (centres unmarked) [fipronil],IC50,A. pisum RDL1ad,640 ± 150 nM
same,IC50,Vd-RDL1 GABAr,> 500000 nM
same,block of GABA response by fipronil,"Vd-RDL1 GABAr; fipronil 30 µM, GABA 100 µM",almost no block
same,IC50,A. pisum RDL2b,720 ± 200 nM
same,IC50,Ap-RDL1 GABAr; [3],310 nM and 300 to 3000 nM
same,IC50,Am-RDL GABAr,70 ± 200 nM
same,IC50,A. pisum RDL1bd,180 ± 100 nM
same,IC50,Vd-RDL2 GABAr; [3],770 nM and 300 to 3000 nM
same,IC50,Vd-RDL3 GABAr,3640 ± 1740 nM
same,IC50,Hs-α1β2γ2,1100 ± 200 nM
same,IC50,[1]; [3],1880 nM and 300 to 3000 nM and 1800 nM
picrotoxin,sensitivity to picrotoxin,Vd-RDL1 GABAr; GABA 100 µM,insensitive
same,block of GABA response by picrotoxin,"Vd-RDL1 GABAr; picrotoxin 100 µM, GABA 100 µM",20%
same,IC50,"Vd-RDL1 GABAr; read-out: IC50 (inhibition of the GABA response), GABA 100 µM, inhibitor co-applied",> 500000 nM
ClC1=C(Cl)[C@]2(Cl)[C@@H]3[C@@H]4C[C@@H]([C@H]5O[C@@H]45)[C@@H]3[C@@]1(Cl)C2(Cl)Cl [dieldrin],Rel.B (steady-state block),"Vd-RDL1 GABAr; dieldrin 1 µM, GABA 300 µM",~20%
same,Tau-Block (time constant of block),"Vd-RDL1 GABAr; dieldrin 1 µM, GABA 300 µM, hard to evaluate, fitted",around 55 min
same,time to reach steady-state inhibition during successive pulses at the same dose,"Ap-RDL1 GABAr; Figure 6B, dieldrin 1 µM, GABA 50 µM",more than 10 min
same,Tau-Block (time constant of block),"Ap-RDL1 GABAr; dieldrin 1 µM, repetitive GABA application, mono-exponential fit",2 to 6 min
same,Rel.B (steady-state relative block),"Am-RDL GABAr; dieldrin 1 µM, GABA 100 µM",80–91%
same,Tau-Block (time constant of block),Am-RDL GABAr; [4],2 to 6 min
same,Rel.B (steady-state relative block),"Vd-RDL2 GABAr; dieldrin 1 µM, GABA 100 µM",51 ± 1%
same,Tau-Block (time constant of block),Vd-RDL2 GABAr; [4],2 to 6 min
same,Rel.B (steady-state relative block),"Vd-RDL3 GABAr; dieldrin 1 µM, GABA 100 µM",80–91%
same,Tau-Block (time constant of block),Vd-RDL3 GABAr; [4],2 to 6 min
same,Rel.B (steady-state relative block),"[2]; dieldrin 1 µM, GABA 100 µM",80–91%
same,Tau-Block (time constant of block),[2]; [4],2 to 6 min
same,Rel.B (steady-state relative block),"[1]; dieldrin 1 µM, GABA 300 µM",80–91%
same,Tau-Block (time constant of block),"[1]; dieldrin 1 µM, GABA 300 µM, mono-exponential fit",2 to 6 min
"NCCCC(=O)O [GABA, γ-aminobutyric acid]",p (slope factor) of GABA dose–response curve,Vd-RDL1 GABAr; logistic fit,2.3 ± 0.2
same,EC50,Vd-RDL1 GABAr; [5],269000 ± 41000 nM
same,p (slope factor) of GABA dose–response curve,Ap-RDL1 GABAr; logistic fit,2.4 ± 0.3
same,EC50,Am-RDL GABAr,19300 ± 3500 nM
same,p (slope factor) of GABA dose–response curve,Am-RDL GABAr; logistic fit,2.1 ± 0.2
same,p (slope factor) of GABA dose–response curve,Vd-RDL2 GABAr; logistic fit,1.8 ± 0.2
same,p (slope factor) of GABA dose–response curve,Vd-RDL3 GABAr; logistic fit,2.3 ± 0.1
same,EC50,Vd-RDL3 GABAr; [5],43100 ± 10400 nM
same,p (slope factor) of GABA dose–response curve,[2]; logistic fit,1.4 ± 0.2
same,p (slope factor) of GABA dose–response curve,[1],1.4 ± 0.1
